Data set [1] deals with IL2R-α, -β, and -γ chains. Kind of data set: FACS analysis of IL2 receptor expression on PHA-activated T-cell blasts. It is filed as cell-based, human. The settings on record: 50 μM overnight. The protocol:
FIG. 7A is a bar graph showing that proliferation of PHA-activated human T cells was blocked by the indicated NCI agents following stimulation with IL-2. FIG. 7B is a FACS analysis of PHA-activated T-cell blasts that were treated without (heavy line) or with 50 μM NC1153 (light line) overnight and stained for IL2R-α, -β, and -γchains. FIG. 7C is a graph of cell growth inhibition over a range of NC1153 concentration in non-Jak3 expressing Jurkat cells (black diamonds) and in Jak3 containing PHA activated T-cells (open boxes). FIG. 7D is a graph of cell growth inhibition versus NC1153 concentration in T-cells stimulated by cytokines that utilize Jak3 and the common gamma chain.
Also shown (FIG. 7B) is a graph showing the FACS analysis of PHA-activated T-cell blasts that were treated without (heavy line) or with 50 μM NC1153 (light line) overnight and stained for IL2R-α, -β, and -γ chains. The dashed lines indicate cells pretreated with NC1153. […] Data are normalized as percent of vehicle control. NC1153 inhibits growth of cells by cytokines that utilize Jak3 and the common gamma chain (FIG. 7D). […] Thus, the inhibitory effects of NC1153 are not limited to cells stimulated only by IL-2. Instead, the entire family of cytokines which use Jak3 are blocked by NC1153.

The nature of data set [2]: Oral bioavailability estimated from allograft survival p.o. versus i.v. The settings on record: ACI, rat, in vivo, 80 mg/kg p.o. gave similar survivals as 10 mg/kg i.v. The method, then:
To test the in vivo effects, recipients of kidney allografts were treated with 649641P (NC1153) for 7 days beginning immediately after transplantation. […] A mean survival time (MST) and SD was calculated for each group from 5-6 experiments.

Entries after “also recorded” stand apart in the source; their conditions may differ.

Data on one molecule can be found in patent publication US7365096B2, “Methods for selectively inhibiting Janus tyrosine kinase 3 (Jak3)” (Board of Regents, The University of Texas System, priority 2002, dated 2008).

Take `CN(C)CC1CCCCCCCCCC(CN(C)C)C1=O` (mixture of isomers) [649641P (NC1153)]: in data set [1], the IL2 receptor expression entry is listed as “failed to affect IL2 receptor expression; also recorded: unaffected”. Besides, in data set [2], the bioavailability was roughly 12.5%.
